Reference: publication PMC7767178 (International Journal of Molecular Sciences, 2020)
Read-outs that look alike come from different tables or passages of the source. Positions of bridges follow the written chain, without caps; N, C: chain ends. Residues, ends and D or L forms follow the SMILES beside them.

How the values were obtained:
[1] = system: A. veronii CL0901
Description: (§1) Briefly, the tested strains including Gram-negative bacteria, Gram-positive bacteria, and fungi were cultured to the logarithmic growth phase, diluted to 10^5 CFU/mL, and added into 96-well plates (90 μL/well). Two-fold serial dilutions of peptides or antibiotics dissolved in PBS were added to each well (10 μL/well). […] All experiments were repeated three times.

[2] = system: Aeromonas veronii ACCC61732
Description: as §1

[3] = system: Pseudomonas aeruginosa CICC21630
Description: as §1

[4] = system: S. aureus ATCC25923
Description: as §1

[5] = system: S. aureus ATCC546
Description: as §1

[6] = system: S. hyicus NCTC10350
Description: as §1

[7] = system: Salmonella typhimurium ATCC14028; format: cell-based
[8] = system: A. veronii; assay: MIC, range over strains; format: cell-based; conditions: range over the strains of Table 2
Excerpt: (§2) All experiments were repeated three times.

[9] = system: Escherichia coli; assay: MIC, range over strains; format: cell-based; conditions: range over the strains of Table 2
Excerpt: as §2

[10] = system: A. veronii ACCC61732; assay: Inner membrane permeability, PI staining, flow cytometry; format: cell-based
Description: To analyze effects of peptides on the inner membrane, A. veronii ACCC61732 cells were cultured to mid-log phase at 37 °C in MHB medium, washed thrice with PBS, and resuspended in the PBS buffer to 1 × 10^8 CFU/mL. […] After fixation with PI, the samples were detected by a fluorescent inverted microscope and FACS Calibur Flow Cytometer (BD, San Jose, CA, USA), respectively. Cell Quest Pro software (BD, San Jose, CA, USA) was used for the data analysis.

[11] = system: A. veronii ACCC61732; assay: ATP release, BacTiter-Glo; format: cell-based; conditions: 8×, 16× and 32× MIC, 60 min, 37 °C, luminescence, n = 3
Description: The assay was performed for three biological replicates at 37 °C, with luminescence recorded using a Tecan Infinite M1000 Pro plate reader. The fold reduction of ATP was calculated as: Fold reduction ATP = 1 − (Ltreat − Lmedia/Lcontrol − Lmedia), where Ltreat is the luminescence of treated cells, Lmedia is the luminescence of MHB without cells, and Lcontrol is the luminescence of untreated cells. Resultant graphs show mean (n = 3) and SEM for each data point, prepared in Prism 7 [46].

[12] = system: A. veronii ACCC61732 mature biofilms; assay: Eradication of mature biofilms, crystal violet; format: cell-based; conditions: 16× MIC, 24 h on 24 h biofilm
Description: A. veronii ACCC61732 cells (1 × 10^8 CFU/mL) were cultured in TSB medium in the 96-well plates at 37 °C for 24 h.

[13] = system: A. veronii ACCC61732 biofilms; assay: Mouse model of catheter-associated biofilm infection, bacteria in catheter; format: in vivo, ICR mice; conditions: 5 μmol/kg peptide or CIP 24 h after catheter implantation, catheters collected after seven days, six mice per group
Description: Briefly, the catheter was cut into 1 cm segments; each piece was sterilized with 70% ethanol and then dried by air. Bacterial biofilms were developed on the catheter by placing individual segments into tubes containing 1.0 mL of a cell suspension (1 × 10^8 CFU/mL) in TSB. After incubation for 24 h at 37 °C, colonized catheters were recovered aseptically and rinsed with PBS to remove unbound bacteria. ICR female mice (20 ± 5 g) were anesthetized with isoflurane; the flanks were shaved and the skin was cleansed with alcohol. […] The incision was then covered with intact skin and closed with surgical suture line and the skin was disinfected. […] The untreated mice were used as the negative control and the mice with sterile catheter were used as the blank control. The mice were anesthetized and sacrificed after seven days. The catheters in the back of the mice were collected and thoroughly shaken in sterile PBS.

[14] = system: MDR A. veronii ACCC61732; assay: Mouse peritonitis model, survival; format: in vivo, ICR mice; conditions: seven days, six mice
Description: […]. The mice injected with only bacteria or saline served as the negative and blank control. The mouse survival was recorded daily for seven days.

[15] = system: IL-10; assay: Serum cytokine, ELISA, peritonitis model; format: in vivo; conditions: 24 h after treatment, range over mice
Description: Sera and organs (livers, kidneys, spleens, and lungs) were collected from the mice at 24 h post-treatment. The organs were homogenized in sterile PBS to evaluate bacterial translocation by colony counting. The levels of cytokines (TNF-α, IL-1β, IL-6, and IL-10) in sera were detected using the ELISA kits.

[16] = in vitro; conditions: mouse, 25% mouse serum
[17] = system: A. veronii ACCC61732; assay: Outer membrane permeabilization, NPN assay; format: cell-based; conditions: NPN fluorescence, 1×–4× MIC
Description: The outer membrane permeabilization abilities of peptides were determined using the fluorescent NPN assay. Mid-log phase A. veronii ACCC61732 was collected by centrifugation, washed twice, and then suspended in N-2-hydroxyethylpiperazine-n-2-ethane sulfonic acid (HEPES) buffer (pH 7.4) to an OD600nm = 0.4. […] Fluorescence intensity was recorded until no further increase with a microplate reader (excitation/emission, 328/438 nm).

[18] = A. veronii CL0901, broth dilution, 37 °C, 16–18 h, three experiments
[19] = Aeromonas veronii ACCC61732 (MDR), broth dilution, 37 °C, 16–18 h, three experiments
[20] = S. aureus ATCC25923, broth dilution, 37 °C, 16–18 h, three experiments
[21] = S. aureus ATCC546, broth dilution, 37 °C, 16–18 h, three experiments
[22] = Salmonella typhimurium ATCC14028, broth dilution, 37 °C, 16–18 h, three experiments

SMILES	MIC [1]	MIC [1, 18]	MIC [2]	MIC [2, 19]	MIC [4, 20]	MIC [5, 21]	MIC ([6]; NCTC10350)	MIC [7, 22]	Permeability (PI-positive cells) ([10]; 1× MIC, 0.5 h)	Permeability (PI-positive cells) ([10]; 1× MIC, 2 h)	Permeability (PI-positive cells) ([10]; 2× MIC, 0.5 h)	Permeability (PI-positive cells) ([10]; 2× MIC, 2 h)	Permeability (PI-positive cells) ([10]; 4× MIC, 0.5 h)	Permeability (PI-positive cells) ([10]; 4× MIC, 2 h)	ATP release [11]	inhibition of mature biofilms [12]	decrease of bacterial cells in the catheter [13]	remaining at 2 h [16]	remaining at 4.5 h [16]	remaining at 6 h [16]	further results
CC(C)[C@@H]1NC(=O)CNC(=O)[C@H](CC(N)=O)NC(=O)[C@H](CCCNC(=N)N)NC(=O)[C@H](Cc2ccc(O)cc2)NC(=O)[C@H](C(C)C)NC(=O)[C@@H](NC(=O)[C@@H](NC(=O)[C@H](CC(N)=O)NC(=O)[C@H](Cc2c[nH]c3ccccc23)NC(=O)[C@H](C)NC(=O)[C@H](Cc2ccccc2)NC(=O)CN)C(C)C)CSSC[C@@H](C(=O)N[C@@H](Cc2c[nH]cn2)C(=O)N[C@@H](CCCNC(=N)N)C(=O)N2CCC[C@H]2C(=O)N[C@@H](C)C(=O)N[C@@H](CC(N)=O)C(N)=O)NC(=O)[C@H](C(C)C)NC(=O)[C@H](CCCNC(=N)N)NC1=O [N6PNH2] (H-GFAWNVCVYRNGVRVCHRPAN-NH2; disulfide 7-16 (inferred))	26.49 µM	64 µg/mL	6.62 µM	16 µg/mL	>64 µg/mL	>64 µg/mL	>52.98 µM	16 µg/mL	0%	2.11%	0.68%	1.35%	0%	1.23%	77.39–90.34%	97.16%	54.09%	95.2%	84.9%	79.9%	MIC ([3]; Pseudomonas aeruginosa CICC21630, broth dilution, 37 °C, 16–18 h, three experiments): >64 µg/mL; MIC ([7]; ATCC14028): 6.62 µM; MIC values against A. veronii [8]: 6.62 to 26.49 µM; MIC values against Escherichia coli [9]: 1.66 to 3.31 µM; survival rate of mice ([14]; 5 μmol/kg i.p. 0.5 h after infection): 50%; serum level of IL-10 ([15]; 5 μmol/kg): no discrepancy of IL-10 levels
CC(C)[C@@H]1NC(=O)CNC(=O)[C@H](CC(N)=O)NC(=O)[C@H](CCCNC(=N)N)NC(=O)[C@H](Cc2ccc(O)cc2)NC(=O)[C@H](C(C)C)NC(=O)[C@@H](NC(=O)[C@@H](NC(=O)[C@H](CC(N)=O)NC(=O)[C@H](Cc2c[nH]c3ccccc23)NC(=O)[C@H](C)NC(=O)[C@H](Cc2ccccc2)NC(=O)[C@H](CCCN)N=C(N(C)C)N(C)C)C(C)C)CSSC[C@@H](C(=O)N[C@@H](Cc2c[nH]cn2)C(=O)N[C@@H](CCCNC(=N)N)C(=O)N[C@@H](CCCNC(=N)N)C(=O)N[C@@H](C)C(=O)N[C@@H](CC(N)=O)C(N)=O)NC(=O)[C@H](C(C)C)NC(=O)[C@H](CCCNC(=N)N)NC1=O (stereo in doubt) [Guo-N6NH2]	6.08 µM	16 µg/mL	3.04 µM	8 µg/mL	32 µg/mL	16 µg/mL	24.32 µM	4 µg/mL	0.63%	4.96%	0.55%	1.91%	0%	2.16%	66.23–92.09%	–	–	84%	56.8%	44.2%	MIC, control ([2]; Table S6 control: absence of temperature, acid and alkali, salt and enzyme condition): 8 µg/mL; MIC ([3]; CICC21630): >24.3 µM; MIC ([4]; ATCC25923): 12.16 µM; MIC ([5]; ATCC546): 6.08 µM; MIC ([6]; S. hyicus NCTC10350, broth dilution, 37 °C, 16–18 h, three experiments): 64 µg/mL; ability to penetrate the outer membrane [17]: higher ability to penetrate the outer membrane than N6NH2
O=C(O)c1cn(C2CC2)c2cc(N3CCNCC3)c(F)cc2c1=O [CIP, ciprofloxacin, reference compound]	–	–	–	–	–	–	–	–	–	–	–	–	–	–	7.06–47.60%	89.87%	28.72%	–	–	–	survival rate of mice ([14]; 1 μmol/kg i.p. 0.5 h after infection): 83.33%; serum level of IL-10 ([15]; 1 μmol/kg): 10.1 to 16.41 pg/mL
